From ChEMBL document CHEMBL1201862, “PubChem BioAssay data set” (2004) come the findings set out here.

Test in all cases: DTP human tumour cell line panel, 48 h
Assay [1] relates to 786-0.
The subject of assay [2] is A549.
Assay [3] has as its system ACHN.
In assay [4] the test system is HCC 2998.
Assay [5] has as its system HOP-92.
The subject of assay [6] is Hs-578T.
In assay [7] the test system is KM12.
Assay [8] concerns LOX IMVI.
Assay [9] deals with MDA-N.
Assay [10] relates to NCI-H23.
Assay [11] has as its system OVCAR-8.
Assay [12] has as its system PC-3.
In assay [13] the test system is RXF 393.
Assay [14] has as its system SK-MEL-2.
Assay [15] deals with SNB-19.
The subject of assay [16] is SR.
For assay [17], the system named is SW-620.
The test system of assay [18] is T47D.
The subject of assay [19] is TK-10.
Assay [20] relates to SF-295.

Values joined by “and” are separate entries in the source; they are usually repeats but may differ in a detail not shown here. Identical values can stand only once.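 48-hour exposure; five concentrations; linearly interpolated endpoints. At the GI50, growth is halved.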 Active and inactive are the calls of the source. No stated cut-off is given here; in the data, active = GI50 up to about 1.1 µM and inactive = higher.

Turning to `CCCCCCCCCCCCCCCCNc1nc(=O)n(C2CC(O)C(COP(=O)(O)OC3CC(n4cc(F)c(=O)[nH]c4=O)OC3CO)O2)cc1F` (centres undefined), the GI50 – broadly, the concentration at which growth is held to half of that of the control – in assay [1] was 0.416 µM (active); in [2], 0.0333 µM (active); in assay [3], 0.0234 µM (active); in [4], < 0.01 µM (active); in assay [5] it was 4.38 µM (inactive); in [6] it was 15.6 µM (inactive). Also, the GI50 in assay [7] was 20.7 µM (inactive); in assay [8] it was 0.0637 µM (active); in assay [9], 19.4 µM (inactive); in assay [10], 0.44 µM (active); in assay [11] it was 0.296 µM (active); in assay [12], 6.35 µM (inactive). The GI50 is 6.97 µM (inactive) in assay [13]; 30.1 µM (inactive) in assay [14]; 0.27 µM (active) in assay [15]; < 0.0243 µM (active) in assay [16]; 32.1 µM (inactive) in assay [17]; 6.68 µM (inactive) in assay [18]. Also, the GI50 in [19] was 25.7 µM (inactive).

With `Fc1ccc(OCc2ccc3nc(-c4ccccc4)c(Cl)nc3c2)cc1`, the GI50 in assay [1] was 16.9 µM (inactive); in assay [2], 38.6 µM (inactive); in assay [3], 25.4 µM (inactive); in [4] it was 40.5 µM (inactive); in [5] it was 25.7 µM (inactive); in [6], 24.7 µM (inactive). For the same molecule, the GI50 in assay [7] is 51.6 µM (inactive); in assay [8], 88.5 µM (inactive); in assay [9] it was 72.4 µM (inactive); in assay [10] it was 25.3 µM (inactive); in assay [11], 36.4 µM (inactive); in [12], 37.2 µM (inactive). In addition, the GI50 in assay [20] was 21.4 µM (inactive); in assay [14], 41.9 µM (inactive); in assay [15], > 10 µM (inactive); in assay [16], 16.1 µM (inactive); in assay [17] it was 77.3 µM (inactive); in assay [18] it was 31.6 µM (inactive). Besides, the GI50 in assay [19] was 31.8 µM (inactive).

As for `O=c1[nH]nc(Cc2ccccc2)n1/N=C\c1ccccc1`, the GI50 in assay [1] was 71.3 µM (inactive); in assay [2] it was > 100 µM (inactive); in [3], > 100 µM (inactive); in [4], > 100 µM (inactive); in [5], 46.2 µM (inactive); in assay [6], 76.2 µM (inactive). Besides, the GI50 in [7] was > 100 µM (inactive); in assay [8] it was > 100 µM (inactive); in [9], > 100 µM (inactive); in assay [10], > 100 µM (inactive); in assay [11], 90.4 µM (inactive); in assay [12], > 100 µM (inactive). For the same molecule, the GI50 in assay [13] is 24.6 µM (inactive); in assay [20] it was 43.9 µM (inactive); in assay [14], 31.2 µM (inactive); in assay [16], > 100 µM (inactive); in [17] it was > 100 µM (inactive); in assay [18] it was > 100 µM (inactive). The GI50 in assay [19] was > 100 µM (inactive).

Consider `CCOc1c2ccsc2c(OCC)c2ccsc12`, for which the GI50 was 4.44 µM (inactive) in [1]; 7.21 µM (inactive) in assay [2]; 7.1 µM (inactive) in assay [3]; 6.56 µM (inactive) in assay [4]; 2.57 µM (inactive) in assay [5]; 4.21 µM (inactive) in assay [6]. In addition, the GI50 in assay [7] was 3.77 µM (inactive); in assay [8], 2.61 µM (inactive); in assay [9] it was 0.94 µM (active); in assay [10] it was 4.34 µM (inactive); in assay [11] it was 6.24 µM (inactive); in assay [12], 3.94 µM (inactive). In addition, the GI50 was 3.59 µM (inactive) in assay [13]; 2.57 µM (inactive) in assay [20]; > 30.1 µM (inactive) in assay [14]; 4.37 µM (inactive) in assay [15]; 4.32 µM (inactive) in assay [16]; 3.72 µM (inactive) in [17]. The GI50 in [18] was 3.94 µM (inactive); in assay [19] it was > 100 µM (inactive).

For the molecule `Cc1ccc(S(=O)(=O)N/N=C2\CC3CC4CCC2C4C3)cc1` (centres undefined), the GI50 in assay [1], in [2], in assay [3], in [4], in assay [5] and in [6] was > 100 µM (inactive) throughout. For the same molecule, the GI50 in assay [7], in assay [8], in [9], in assay [10], in assay [11] and in [12] was > 100 µM (inactive) throughout. In addition, the GI50 in [13], in assay [20], in [16], in assay [17], in [18] and in [19] was > 100 µM (inactive) throughout.

Take `C=C1C(=O)OC2/C=C(\CO)C(OC(C)=O)CC(O)/C(C)=C/C(OC(=O)C(C)CC)C12` (centres undefined): the GI50 in [1] was 14.8 µM (inactive) and 21.8 µM (inactive); in assay [2], 45.8 µM (inactive) and 37.3 µM (inactive); in assay [3], 26.2 µM (inactive) and 23.7 µM (inactive); in assay [4], 22.4 µM (inactive) and 15.6 µM (inactive); in [5], 18.5 µM (inactive) and 21.7 µM (inactive); in [6], 36.9 µM (inactive). The GI50 in assay [8] is 18.8 µM (inactive) and 13.7 µM (inactive); in assay [9] it was 18.3 µM (inactive); in [10], 24.2 µM (inactive) and 17.2 µM (inactive); in [11] it was 21.7 µM (inactive) and 17.7 µM (inactive); in assay [12], 39.2 µM (inactive); in assay [13] it was 23.1 µM (inactive) and 24.4 µM (inactive). For the same molecule, the GI50 in assay [20] is > 100 µM (inactive); in assay [14], 17.5 µM (inactive) and 17.1 µM (inactive); in assay [15], 50.1 µM (inactive) and 75.7 µM (inactive); in assay [16] it was 8 µM (inactive); in [17], 11.8 µM (inactive) and 21.5 µM (inactive); in [18], 15.7 µM (inactive). In [19], the GI50 was 17.6 µM (inactive) and 19.3 µM (inactive).

For the molecule `CC1=NN(c2nc(N)nc(/C(C#N)=C/c3ccccc3O)n2)C(C)(C)C1`, the GI50 in [1] was 15.7 µM (inactive); in [2], 15.9 µM (inactive); in assay [3], 18.5 µM (inactive); in [4], 19.5 µM (inactive); in assay [5], 20.1 µM (inactive); in assay [6] it was 16.3 µM (inactive). Also, the GI50 in [7] is 15.8 µM (inactive); in [9], 15.3 µM (inactive); in [10], 16.8 µM (inactive); in assay [11] it was 26.5 µM (inactive); in assay [12] it was 16 µM (inactive); in assay [13], 20.2 µM (inactive). For the same molecule, the GI50 in [20] is 15.6 µM (inactive); in assay [14], 22.2 µM (inactive); in assay [15], 25.5 µM (inactive); in [16] it was 35.9 µM (inactive); in [18] it was 15.7 µM (inactive); in assay [19], 26.7 µM (inactive).

Take `c1cc2c3c(c1)[C@@H]1O[C@@H]1c1cccc(c1-3)[C@@H]1O[C@H]21`: the GI50 in assay [1] is 20 µM (inactive); in assay [2], 31.6 µM (inactive); in assay [3], 18.7 µM (inactive); in assay [5], 20.8 µM (inactive); in assay [6], 17.6 µM (inactive); in [7], 17.1 µM (inactive). Besides, the GI50 in assay [8] is 3.08 µM (inactive); in [9], 17.9 µM (inactive); in [10] it was 16.4 µM (inactive); in assay [11], 17.9 µM (inactive); in [12], 22.9 µM (inactive); in [13] it was 2.93 µM (inactive). In addition, the GI50 is 23.6 µM (inactive) in assay [20]; 17.4 µM (inactive) in [14]; 53.3 µM (inactive) in [15]; 49.5 µM (inactive) in assay [16]; 20.5 µM (inactive) in assay [18]; 32.2 µM (inactive) in assay [19].

Take `O=C1C(NS(=O)(=O)c2ccccc2)=C(n2ccnc2)C(=O)c2ccccc21`: the GI50 in assay [1], in assay [2], in [3], in assay [5], in [6] and in [7] was > 100 µM (inactive) in each case. Further, the GI50 in assay [8], in assay [9], in assay [10], in assay [11], in assay [12] and in [13] was > 100 µM (inactive) in each case. Besides, the GI50 in [20], in assay [14], in assay [15], in assay [16], in assay [17] and in assay [18] was > 100 µM (inactive) each time. Moreover, the GI50 in assay [19] is 24.7 µM (inactive).

Take `COC(=O)C12C3C4(C(=O)OC)C1C1(C(=O)OC)C2C3(C(=O)OC)C41C(=O)N(C(C)C)C(C)C` (centres undefined): the GI50 in assay [1], in assay [2], in assay [3], in [4], in [5] and in [6] was > 100 µM (inactive) in each case. Besides, the GI50 in assay [7], in assay [8], in [9], in assay [10], in assay [11] and in [12] was > 100 µM (inactive) throughout. For the same molecule, the GI50 in [13], in assay [20], in [14], in assay [15], in [16] and in assay [17] was > 100 µM (inactive) throughout. In addition, the GI50 in [18] and in assay [19] was > 100 µM (inactive) in each case.
